Measured values taken from patent US9241928B2, “Antimicrobial compounds” (The General Hospital Corporation, priority 2009, dated 2016).
Values after ≈ are worked out from the molar mass of the structure shown.

Tests used:
[1] = test system: C. elegans infected with E. faecalis; assay: Dose response time courses in the C. elegans-E. faecalis infection assay; type: in vivo, Caenorhabditis elegans; conditions: Effective Concentration: survival significantly different from mock-treated, p-value <0.05, logrank; read-out: EC
Description: glp-4(bn2); sek-1 (km4) mutant worms were grown to gravid adult stage. 1,000 worms at the L1 stage were grown for 5.2 days at 15° C. on 9-cm plates of SK agar media spread with a lawn of E. coli strain HB101. Embryos from the gravid adults were isolated by a previously described hypochlorite method (see Tan et al., (1999) Proc. Natl. Acad. Sci. USA 96, 715-720) and hatched at 15° C. for 2 days. Approximately 4,500 of the Ll hatchlings were grown on each 9-cm plate of SK-NS agar (SK media with 62.5 U/ml nystatin and 100 μg/ml streptomycin) and with lawns of E. coli HB101. These worms were grown at 25° C. for 52 hours to generate sterile, young adults.
A culture of E. faecalis MMH594 was grown in BHI broth (BD Difco) with 80 μg/ml kanamycin at 37° C. for 6 hours and 100 μl of the culture were spread onto each 9-cm plate of BHI agar containing 80 μg/mlkanamycin. Lawns of E. faecalis were grown at 25° C. for 16 hours and transferred to 15° C. for 8 hours.
Sterile adult worms were resuspended in M9 buffer and washed twice with M9 in a 1:10 ratio to remove E. coli. 8,000 worms were pipetted onto each lawn of E. faecalis and incubated 15 hours at 15° C. After infection, the worms were resuspended in M9 and used as described below. 384-well plates (Corning #3712) were filled with 55 μl media (see below) using a Thermo Scientific MULTIDROP Combi reagent dispenser. 0.3 μl of a candidate compound in DSMO were pin transferred into each well using a CyBio CYBI-Well vario transfer system. The plates were agitated using an Eppendorf MIXMATE at 1,800 rpm for 15 seconds. Using the Union Biometrica Complex Object Parametric Analyzer and Sorter (COPAS) BIOSORT worm sorter according to manufacturer's protocols, 15 of the infected worms were transferred to each well in a total volume of approximately 15 μl. Total volume per well is 70 μl/well with a final composition of the media being 20% BHI, […], 80 μg/ml kanamycin, 62.5 U/ml nystatin, 1% DMSO, and 19% sheath solution (Union Biometrica Part #300-5101-000). Plates were vortexed for 5 seconds, centrifuged at 1000×g for 10 seconds, and sealed with gas permeable membranes (BREATHEASY Diversified). Plates were placed in a single layer on the top shelves in a 26.3° C. incubator at 85% relative humidity (RH) and incubated without agitation for 5 days.
The dose dependence of certain antimicrobial compounds identified by the assay above were studied. These compounds were purchased in a larger amount from commercial sources. For each of these compounds, an infection assay was performed essentially as described above at different concentrations except that SYTOX staining was not used. Instead, bright-field images of the wells were acquired at daily time points and scored manually for worm survival by analyzing worm body positioning. […] All compounds used in this assays were confirmed for their identity and purity by liquid chromatography/mass spectrometry.

E. faecalis MMH594 = assay: MIC assay, E. faecalis in vitro; type: cell-based; conditions: Enterococcus faecalis; E. faecalis MMH594 in 20% BHI, 80% M9, 37° C., 15 hours, scored by eye
Description: A culture of E. faecalis MMH594 was grown overnight in BHI broth to stationary phase at 37° C. with aeration. The culture was diluted to an approximate density of […] in worm infection media (20% BHI, 80% M9 buffer). 12.5 μl of the bacterial culture dilution was inoculated into 384-well plates containing 12.5 μl of 2-fold serial dilutions of a test compound. […] Plates were incubated at 37° C. for 15 hours and scored by eye for bacterial growth.

clec-60::GFP = assay: Immune GFP reporter induction, transgene agIs26; type: in vivo, Caenorhabditis elegans; conditions: compound-exposed versus DMSO-exposed animals, visual
From the text: Caenorhabditis elegans strains were maintained on Escherichia coli OP50 as described in Brenner, Genetics, 1974, 77:71-94. Wildtype N2 nematodes carrying integrated transgenes acIs219 (AU78), acIs101(AY101), agIs17(AU133), or agIs26 (AU185) (see (1) Shivers, et al., PLoS. Genet. 2010, 6: e1000892, (2) Bolz et al., J. Biol. Chem. 2010, 285:10832-40, (3) Estes et al., Proc. Natl. Acad. Sci., 2010, 107:2153-8, and (4) Irazoqui et al., Proc. Natl. Acad. Sci., 2008, 105:17469-74) were used to assay the immunomodulatory activity of candidate compounds. […] Fold change was calculated using the Pfaffl method (see Pfaffl et al., Nucleic Acids Res., 2001, 29:e45).
Without wishing to be bound by theory, it was hypothesized that a subset of these compounds cured nematode infection by directly activating the innate immune response of the animal. […] First, the inventors studied four C. elegans strains in which the promoter of the nematode immune response genes T24B8.5, F35E12.5, irg-1 and clec-60 were individually fused to GFP, generating transgenes acIs219 (AU78), acIs101(AY101), agIs17(AU133), or agIs26 (AU185), respectively, thereby allowing a visual readout of gene activity in each strain. […]

PA14 = assay: Growth of PA14 in presence of compound (data not shown); type: cell-based, Pseudomonas aeruginosa; conditions: 3.125 μg/mL

In the case of NNc1ccc2c(Cl)cc(Cl)c(O)c2n1 [Compound 11], the minimal effective concentration [1] is reported as 0.2 µg/mL, the MIC (E. faecalis MMH594) is reported as 6.25 µg/mL (≈ 25.6 µM) and the “immune reporter induction clec-60::GFP” value (clec-60::GFP) is reported as “+”. For the same molecule, the “effect on PA14 (growth)” value (PA14) was “unaffected”.
